According to US20090004118A1, “Multifunctional Nanoparticle Conjugates And Their Use” (priority 2004, published 2009):

Assays:
[1] = test system: MCF-10A cells (normal breast cells); test: MTT cytotoxicity assay, MCF-10A cells; assay type: cell-based, Human; conditions: compared to cells treated with Paclitaxel-Heparin-FA
[2] = test system: tubulin; test: Tubulin polymerization assay; conditions: 10 μM paclitaxel equivalent, absorbance 340 nm, FIG. 3
[3] = test system: tumor cell cultures; conditions: cited from earlier work
[4] = test system: factor Xa; test: Factor Xa chromogenic assay (anti Factor Xa heparin activity); assay type: biochemical; conditions: FIG. 2

Row | Compound | IC50 values for inhibition of growth of tumor cell cultures [3] | also measured
1 | Nc1nc2ncc(CNc3ccc(C(=O)N[C@@H](CCC(=O)O)C(=O)O)cc3)nc2c(=O)[nH]1 [free folate, folic acid] |  | viability of normal cells [1]: relatively low
2 | CC(=O)O[C@H]1C(=O)[C@@]2(C)[C@H]([C@H](OC(=O)c3ccccc3)[C@]3(O)C[C@H](OC(=O)[C@H](O)[C@@H](NC(=O)c4ccccc4)c4ccccc4)C(C)=C1C3(C)C)[C@]1(OC(C)=O)CO[C@@H]1C[C@@H]2O [paclitaxel] |  | ability to induce microtubule assembly (tubulin polymerization) [2]: clear increase in absorbance
3 | calicheamicin | low picomolar range | 
4 | dynemicin | low picomolar range | 
5 | esperamicin | low picomolar range | 
6 | heparin |  | bioactivity measured by factor Xa chromogenic assay [4]: 179 IU/mg
